Structures can show the parent of a compound that is named as a salt.
These compounds were tested on hPSC-SCs. Conditions: not given.

Compared with `CCN1C[C@]2(COC)CC[C@H](OC)[C@]34C5C[C@@H]6[C@@H](OC)C[C@@]7(OCO[C@@]7(C13)[C@@H](O)C24)C5[C@H]6OC` (stereo partly drawn) [Delcorine], `CCN1C[C@]2(COC)CC[C@H](O)[C@]34C1[C@@](O)([C@@H](OC)[C@H]23)[C@@]1(O)C[C@H](OC)[C@H]2C[C@@H]4[C@@H]1[C@H]2OC` [Delsoline] is higher in z.score.t: −0.9741 for the first, 1.566 for the second.

Compared with `CCN1C[C@]2(C)CC[C@H](OC)[C@@]34C1[C@]1(OCO[C@@]15C[C@H](OC)[C@H]1C[C@]3(O)[C@@H]5[C@H]1OC)[C@@H](OC(C)=O)[C@H]24` [Deltaline], `C[C@]12CC[C@H]3[C@@H](CCC4=CC(=O)CC[C@@]43C)[C@@H]1CC[C@@H]2C(=O)CO` [Deoxycorticosterone] is lower in z.score.t: 0.1693 for the first, −1.303 for the second.

Compared with `CN(CCCCCCCCCCN(C)C(=O)Oc1cccc([N+](C)(C)C)c1)C(=O)Oc1cccc([N+](C)(C)C)c1` [Demecarium bromide], `CC[N+](C)(C)c1cccc(O)c1` [Edrophonium chloride] is lower in z.score.t: 1.211 for the first, 0.7913 for the second.

Going from `C[C@]12CC[C@H](O)C[C@H]1CC[C@@H]1[C@@H]2CC[C@]2(C)[C@@H](C3=CC(=O)OC3)CC[C@]12O` [Digitoxigenin] to `C[C@H]1O[C@@H](O[C@H]2[C@@H](O)C[C@H](O[C@H]3[C@@H](O)C[C@H](O[C@H]4CC[C@@]5(C)[C@H](CC[C@@H]6[C@@H]5C[C@@H](O)[C@]5(C)[C@@H](C7=CC(=O)OC7)CC[C@]65O)C4)O[C@@H]3C)O[C@@H]2C)C[C@H](O)[C@@H]1O` [Digoxin], the z.score.t falls from −2.008 to −2.04.

First: C[C@]12N[C@H](Cc3ccccc31)c1ccccc12 [Dizocilpine maleate]
Second: COc1c2c(nc3ccccc13)OC(C(C)(O)CO)C2 (stereo not drawn) [Dubinidine]
The z.score.t of the first is lower: −0.1538 for the first, 0.6554 for the second.

Same assay, conditions: HTS viability of hPSC-SCs in the presence of 30 mM glucose; Prestwick library; Table S4

First: CN(C)[C@@H]1C(O)=C(C(N)=O)C(=O)[C@@]2(O)C(O)=C3C(=O)c4c(O)ccc(Cl)c4[C@@H](O)[C@H]3C[C@@H]12 [Demeclocycline hydrochloride]
Second: COc1cccc2c1C(=O)c1c(O)c3c(c(O)c1C2=O)C[C@@](O)(C(=O)CO)C[C@@H]3O[C@H]1C[C@H](N)[C@H](O)[C@H](C)O1 [Doxorubicin hydrochloride]
The z.score.t of the first is higher: 0.4318 for the first, −1.209 for the second.

Going from `CC[N+](CC)(CC(=O)Nc1c(C)cccc1C)Cc1ccccc1` [Denatonium benzoate] to `O=C(O)Cc1ccccc1Nc1c(Cl)cccc1Cl` [Diclofenac sodium], the z.score.t rises from −1.472 to 0.563.

First: Cc1cc(N)c2ccccc2[n+]1CCCCCCCCCC[n+]1c(C)cc(N)c2ccccc21 [Dequalinium dichloride]
Second: Cc1c2ccncc2c(C)c2c1[nH]c1ccccc12 [Ellipticine]
The z.score.t of the first is higher: 0.5046 for the first, −1.949 for the second.

Going from `CNCCCN1c2ccccc2CCc2ccccc21` [Desipramine hydrochloride] to `CN(C)CCC=C1c2ccccc2COc2ccccc21` [Doxepin hydrochloride], the z.score.t rises from −1.014 to 0.1594.

First: CC(=O)OCC(=O)[C@@]1(O)[C@H](C)C[C@H]2[C@@H]3CCC4=CC(=O)C=C[C@]4(C)[C@@]3(F)[C@@H](O)C[C@@]21C [Dexamethasone acetate]
Second: CC(=O)OCC(=O)[C@@]1(OC(C)=O)[C@@H](C)C[C@H]2[C@@H]3C[C@H](F)C4=CC(=O)C=C[C@]4(C)[C@@]3(F)[C@@H](O)C[C@@]21C [Diflorasone Diacetate]
The z.score.t of the first is lower: 0.4486 for the first, 1.72 for the second.

Going from `CC1=NS(=O)(=O)c2cc(Cl)ccc2N1` [Diazoxide] to `NS(=O)(=O)c1cc(Cl)c(Cl)c(S(N)(=O)=O)c1` [Dichlorphenamide], the z.score.t falls from 0.4626 to −0.8317.

Compared with `CCCCOc1cc(C(=O)NCCN(CC)CC)c2ccccc2n1` [Dibucaine], `CCCCc1cc2ccccc2c(OCCN(C)C)n1` [Dimethisoquin hydrochloride] is higher in z.score.t: −1.214 for the first, 0.04918 for the second.

Going from `Cc1onc(-c2c(Cl)cccc2Cl)c1C(=O)N[C@@H]1C(=O)N2[C@@H]1SC(C)(C)[C@@H]2C(=O)O` [Dicloxacillin sodium salt] to `CC(C)[C@@]1(NC(=O)[C@@H]2C[C@@H]3c4cccc5[nH]cc(c45)C[C@H]3N(C)C2)O[C@@]2(O)[C@@H]3CCCN3C(=O)[C@H](Cc3ccccc3)N2C1=O` [Dihydroergocristine mesylate], the z.score.t falls from 1.942 to −0.3319.

Going from `O=c1oc2ccccc2c(O)c1Cc1c(O)c2ccccc2oc1=O` [Dicumarol] to `O=c1c2ccccc2[se]n1-c1ccccc1` [Ebselen], the z.score.t rises from −0.3242 to 0.3459.

Going from `CCN(CC)CCOC(=O)C1(C2CCCCC2)CCCCC1` [Dicyclomine hydrochloride] to `CCN(CC)CCOC(=O)C(c1ccccc1)C1CCCCC1` (stereo not drawn) [Drofenine hydrochloride], the z.score.t rises from −0.2865 to −0.1913.

Compared with `O=c1[nH]cnc2c1ncn2[C@H]1CC[C@@H](CO)O1` [Didanosine], `Cn1c(=O)c2c(ncn2CC(O)CO)n(C)c1=O` (stereo not drawn) [Diprophylline] is higher in z.score.t: −0.07933 for the first, 0.7415 for the second.

Compared with `C/C=C(/C(=C/C)c1ccc(O)cc1)c1ccc(O)cc1` [Dienestrol], `CC/C(=C(/CC)c1ccc(O)cc1)c1ccc(O)cc1` [Diethylstilbestrol] is higher in z.score.t: −1.123 for the first, 1.624 for the second.

First: CCN(CC)C(=O)N1CCN(C)CC1 [Diethylcarbamazine citrate]
Second: CCN(CC)C(=S)SSC(=S)N(CC)CC [Disulfiram]
The z.score.t of the first is higher: 0.378 for the first, −1.291 for the second.

Compared with `O=C(O)c1cc(-c2ccc(F)cc2F)ccc1O` [Diflunisal], `COc1ccc(C(=O)c2ccccc2O)c(O)c1` [Dioxybenzone] is lower in z.score.t: 0.7162 for the first, −0.2359 for the second.

Going from `C[C@]12CC[C@H](O)C[C@H]1CC[C@@H]1[C@@H]2C[C@@H](O)[C@]2(C)[C@@H](C3=CC(=O)OC3)CC[C@]12O` [Digoxigenin] to `CC(=O)[C@H]1CC[C@H]2[C@@H]3C=CC4=CC(=O)CC[C@@]4(C)[C@@H]3CC[C@]12C` [Dydrogesterone], the z.score.t rises from −2.387 to 0.81.

Compared with `CN[C@@H]1[C@H](O[C@H]2[C@H](O[C@H]3[C@H](O)[C@@H](O)[C@H](NC(=N)N)[C@@H](O)[C@@H]3NC(=N)N)O[C@@H](C)[C@]2(O)CO)O[C@@H](CO)[C@H](O)[C@H]1O` [Dihydrostreptomycin sulfate], `CC[C@H]1OC(=O)[C@H](C)[C@@H](O[C@H]2C[C@@](C)(OC)[C@@H](O)[C@H](C)O2)[C@H](C)[C@@H](O[C@@H]2O[C@H](C)C[C@H](N(C)C)[C@H]2O)[C@](C)(O)C[C@@H](C)[C@@H]2N[C@@H](COCCOC)O[C@H]([C@H]2C)[C@]1(C)O` [Dirithromycin] is higher in z.score.t: −0.359 for the first, 0.3231 for the second.

First: COc1cc(C(=O)OCCCN2CCCN(CCCOC(=O)c3cc(OC)c(OC)c(OC)c3)CC2)cc(OC)c1OC [Dilazep dihydrochloride]
Second: CC[C@H]1CN2CCc3cc(OC)c(OC)cc3[C@@H]2C[C@@H]1C[C@H]1NCCc2cc(OC)c(OC)cc21 [Emetine dihydrochloride]
The z.score.t of the first is higher: −1.444 for the first, −1.991 for the second.

Going from `CN(C(=O)C(Cl)Cl)c1ccc(OC(=O)c2ccco2)cc1` [Diloxanide furoate] to `COc1ccc([C@@H]2Sc3ccccc3N(CCN(C)C)C(=O)[C@@H]2OC(C)=O)cc1` [Diltiazem hydrochloride], the z.score.t falls from 1.069 to 0.6906.

Compared with `CN(C)CCCSC(=N)N` [Dimaprit dihydrochloride], `CN(C)CCOC(c1ccccc1)c1ccccc1` [Diphenhydramine hydrochloride] is lower in z.score.t: 1.918 for the first, −0.5689 for the second.

Compared with `CN(C)CCOC(c1ccccc1)c1ccccc1.Cn1c(=O)c2[nH]c(Cl)nc2n(C)c1=O` [Dimenhydrinate], `CN1CCC(OC(c2ccccc2)c2ccccc2)CC1` [Diphenylpyraline hydrochloride] is lower in z.score.t: 0.08508 for the first, −0.7376 for the second.

First: CC1(C)OC(=O)NC1=O [Dimethadione]
Second: Cc1c(N(C)CS(=O)(=O)[O-])c(=O)n(-c2ccccc2)n1C.[Na+] [Dipyrone]
The z.score.t of the first is higher: −0.03362 for the first, −1.008 for the second.

Compared with `CCCCC[C@H](O)/C=C/[C@@H]1[C@@H](C/C=C\CCCC(=O)O)[C@@H](O)C[C@H]1O` [Dinoprost trometamol], `CCCCOc1ccc(C(=O)CCN2CCCCC2)cc1` [Dyclonine hydrochloride] is lower in z.score.t: 1.789 for the first, −0.6492 for the second.

Compared with `O=C(Nc1ccccc1)OCC(CN1CCCCC1)OC(=O)Nc1ccccc1` (stereo not drawn) [Diperodon hydrochloride], `OC(CCCN1CCCCC1)(c1ccccc1)c1ccccc1` [Diphenidol hydrochloride] is higher in z.score.t: −0.7776 for the first, 0.9906 for the second.

Compared with `C[N+]1(C)CCC(=C(c2ccccc2)c2ccccc2)CC1` [Diphemanil methylsulfate], `CN(C)CC/C=C1\c2ccccc2CSc2ccccc21` [Dosulepin hydrochloride] is lower in z.score.t: 0.05523 for the first, −0.8478 for the second.

Going from `CNCC(O)c1ccc(OC(=O)C(C)(C)C)c(OC(=O)C(C)(C)C)c1` (stereo not drawn) [Dipivefrin hydrochloride] to `CC(C)N(CCC(C(N)=O)(c1ccccc1)c1ccccn1)C(C)C` (stereo not drawn) [Disopyramide], the z.score.t rises from −1.319 to 0.4205.

Going from `OCCN(CCO)c1nc(N2CCCCC2)c2nc(N(CCO)CCO)nc(N3CCCCC3)c2n1` [Dipyridamole] to `COc1cc2nc(N3CCN(C(=O)C4COc5ccccc5O4)CC3)nc(N)c2cc1OC` (stereo not drawn) [Doxazosin mesylate], the z.score.t falls from −0.8392 to −0.8683.

Going from `CC(CCc1ccc(O)cc1)NCCc1ccc(O)c(O)c1` (stereo not drawn) [Dobutamine hydrochloride] to `Clc1ccc(COC(Cn2ccnc2)c2ccc(Cl)cc2Cl)cc1` (stereo not drawn) [Econazole nitrate], the z.score.t falls from −0.3731 to −1.834.

First: O=c1[nH]c2ccccc2n1CCCN1CCC(n2c(=O)[nH]c3cc(Cl)ccc32)CC1 [Domperidone]
Second: O=C(CCCN1CC=C(n2c(=O)[nH]c3ccccc32)CC1)c1ccc(F)cc1 [Droperidol]
The z.score.t of the first is lower: 0.006455 for the first, 1.197 for the second.

First: CCN[C@H]1C[C@H](C)S(=O)(=O)c2sc(S(N)(=O)=O)cc21 [Dorzolamide hydrochloride]
Second: CCO.C[C@H]1c2cccc(O)c2C(O)=C2C(=O)[C@]3(O)C(O)=C(C(N)=O)C(=O)[C@@H](N(C)C)[C@@H]3[C@@H](O)[C@@H]21.C[C@H]1c2cccc(O)c2C(O)=C2C(=O)[C@]3(O)C(O)=C(C(N)=O)C(=O)[C@@H](N(C)C)[C@@H]3[C@@H](O)[C@@H]21.Cl.Cl.O [Doxycycline hyclate]
The z.score.t of the first is lower: −0.7873 for the first, 1.148 for the second.

`CN(C)CCOC(C)(c1ccccc1)c1ccccn1` (stereo not drawn) [Doxylamine succinate] showed a z.score.t of −0.1538.
